Test results from ChEMBL document CHEMBL1156090, “Design and synthesis of cell potent BACE-1 inhibitors: structure-activity relationship of P1' substituents” (Bioorg Med Chem Lett, 2009).

Columns and labels:
[1] = tested on: HEK293; assay: […] HEK293 cells expressing swedish-mutant APP FAD isoform; format: functional, Homo sapiens; conditions: read-out: ED50 (the source's name)
[2] = biological target: Beta-secretase 1 (Homo sapiens, UniProt P56817)
Description: Inhibition of recombinant BACE1 expressed in Escherichia coli after 3 hrs by oregon green based fluorescence polarization assay

[3] = biological target: Cathepsin D (Homo sapiens, UniProt P07339)
Description: Inhibition of cathepsin D assessed as reduction in polarization after 110 mins by oregon green based fluorescence polarization assay

[4] = Apparent permeability from apical side to basolateral side in MDCK2 cells at 5 uM after 120 mins by LC/MS/MS; format: ADME, cell-based, Canis lupus familiaris, MDCK-II; conditions: dog, MDCK

Sequence of Beta-secretase 1 (P56817 whole entry): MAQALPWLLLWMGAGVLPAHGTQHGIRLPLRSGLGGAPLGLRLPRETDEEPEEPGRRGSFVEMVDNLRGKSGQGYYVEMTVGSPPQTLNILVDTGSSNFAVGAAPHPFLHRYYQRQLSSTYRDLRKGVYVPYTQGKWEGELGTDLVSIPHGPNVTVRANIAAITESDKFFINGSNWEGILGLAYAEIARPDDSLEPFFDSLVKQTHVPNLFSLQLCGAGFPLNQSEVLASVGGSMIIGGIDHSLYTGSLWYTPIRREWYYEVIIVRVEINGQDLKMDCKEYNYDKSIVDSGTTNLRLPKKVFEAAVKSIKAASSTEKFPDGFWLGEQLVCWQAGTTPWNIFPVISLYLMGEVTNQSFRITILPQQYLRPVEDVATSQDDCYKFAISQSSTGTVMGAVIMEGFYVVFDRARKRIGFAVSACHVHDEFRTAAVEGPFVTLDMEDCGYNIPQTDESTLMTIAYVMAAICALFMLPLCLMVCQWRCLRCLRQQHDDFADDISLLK
Sequence of Cathepsin D (P07339 65-162 limits assumed): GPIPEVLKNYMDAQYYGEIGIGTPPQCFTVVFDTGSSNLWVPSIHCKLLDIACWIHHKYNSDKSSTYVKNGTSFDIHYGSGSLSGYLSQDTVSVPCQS
Sequence of Cathepsin D (P07339 169-412 limits assumed): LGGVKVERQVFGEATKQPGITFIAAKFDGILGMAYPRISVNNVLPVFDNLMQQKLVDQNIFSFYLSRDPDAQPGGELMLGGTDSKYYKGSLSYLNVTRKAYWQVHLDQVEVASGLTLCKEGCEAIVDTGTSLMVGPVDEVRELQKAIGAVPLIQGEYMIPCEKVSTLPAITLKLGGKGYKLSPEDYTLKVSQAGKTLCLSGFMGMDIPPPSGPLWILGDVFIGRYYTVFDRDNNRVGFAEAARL

SMILES	EC50 ([1]; Homo sapiens, HEK293) [nM]	IC50 [2] [nM]	IC50 [3] [nM]	Papp A→B at 2 h, 5 µM [4] [×10⁻⁶ cm/s]	EC50 [1] [nM]
CC(=O)N[C@@H](Cc1cc(F)cc(F)c1)[C@H](O)CN[C@@]1(c2cccc(C(C)(C)C)c2)CC[C@H](N(O)C(C)=O)NC1	1.3	240	2300		
CC(=O)N[C@@H](Cc1cc(F)cc(F)c1)[C@H](O)CN[C@@]1(c2cccc(C(C)(C)C)c2)CC[C@H](Nc2cccnc2)NC1		500	9800		
CC(=O)N[C@@H](Cc1cc(F)cc(F)c1)[C@H](O)CN[C@@]1(c2cccc(C(C)(C)C)c2)CCC(NO)=NC1	0.89	8.8	430		
CC(=O)N[C@@H](Cc1cc(F)cc(F)c1)[C@H](O)CNC1(c2cccc(C(C)(C)C)c2)CCNCC1	710	4700	> 10000		
CC(=O)N[C@@H](Cc1cc(F)cc(F)c1)[C@H](O)CNC1(c2cccc(C(C)(C)C)c2)CCC(=O)CC1	5.6	120	450		
CC(=O)N[C@@H](Cc1cc(F)cc(F)c1)[C@H](O)CN[C@@]1(c2cccc(C(C)(C)C)c2)CC[C@H](S(C)(=O)=O)NC1	100	210	2300		
CC(=O)N[C@@H](Cc1cc(F)cc(F)c1)[C@H](O)CN[C@]1(c2cccc(C(C)(C)C)c2)CC[C@H](O)CC1	870	9200	> 10000		
CS[C@H]1CC[C@@](NC[C@@H](O)[C@H](Cc2cc(F)cc(F)c2)NC(C)=O)(c2cccc(C(C)(C)C)c2)CN1	7.5	24	84		
CC(=O)N[C@@H](Cc1cc(F)cc(F)c1)[C@H](O)CN[C@]1(c2cccc(C(C)(C)C)c2)CC[C@@H](CO)CC1	31	38	330		
CC(=O)N[C@@H](Cc1cc(F)cc(F)c1)[C@H](O)CN[C@]1(c2cccc(C(C)(C)C)c2)CC[C@@H](O)CC1	11	24	1400	0.3	
CC(=O)N[C@@H](Cc1cc(F)cc(F)c1)[C@H](O)CN[C@@]1(c2cccc(C(C)(C)C)c2)CC[C@H](C(F)(F)F)NC1	54	33	28		
CON[C@H]1CC[C@@](NC[C@@H](O)[C@H](Cc2cc(F)cc(F)c2)NC(C)=O)(c2cccc(C(C)(C)C)c2)CN1	7.6	100	530		
CO[C@H]1CC[C@@](NC[C@@H](O)[C@H](Cc2cc(F)cc(F)c2)NC(C)=O)(c2cccc(C(C)(C)C)c2)CN1	13	140	130		
COC(=O)N[C@H]1CC[C@@](NC[C@@H](O)[C@H](Cc2cc(F)cc(F)c2)NC(C)=O)(c2cccc(C(C)(C)C)c2)CN1	16	240	2000		
CC(=O)N[C@@H](Cc1cc(F)cc(F)c1)[C@H](O)CN[C@@]1(c2cccc(C(C)(C)C)c2)CC[C@H](Nc2ccccn2)NC1	21	73	4400		
CC(=O)N[C@@H](Cc1cc(F)cc(F)c1)[C@H](O)CN[C@@]1(c2cccc(C(C)(C)C)c2)CC[C@H](NC=O)NC1	2.4	210	> 10000		
CC(=O)N[C@@H](Cc1cc(F)cc(F)c1)[C@H](O)CN[C@@]1(c2cccc(C(C)(C)C)c2)CC[C@H](C#N)NC1	37	380	640		
CC(=O)N[C@@H](Cc1cc(F)cc(F)c1)[C@H](O)CN[C@@]1(c2cccc(C(C)(C)C)c2)CC[C@H](NO)NC1	0.96	19	3900		
CC(=O)N[C@@H](Cc1cc(F)cc(F)c1)[C@H](O)CN[C@]1(c2cccc(C(C)(C)C)c2)CC[C@@H](CCO)CC1	> 1000	> 10000	> 10000		

SMILES	EC50 ([1]; Homo sapiens, HEK293) [nM]	IC50 [2] [nM]	IC50 [3] [nM]	Papp A→B at 2 h, 5 µM [4] [×10⁻⁶ cm/s]	EC50 [1] [nM]
CC(=O)N[C@@H](Cc1cc(F)cc(F)c1)[C@H](O)CN[C@@]1(c2cccc(C(C)(C)C)c2)CC[C@H](NS(C)(=O)=O)NC1	5.9	400	7200		
CC(=O)N[C@H]1CC[C@@](NC[C@@H](O)[C@H](Cc2cc(F)cc(F)c2)NC(C)=O)(c2cccc(C(C)(C)C)c2)CN1	48	350	> 10000		
CC(=O)N[C@@H](Cc1cc(F)cc(F)c1)[C@H](O)CNC1(c2cccc(C(C)(C)C)c2)CCN(C(N)=O)CC1	> 1000	380	4300		
CC(=O)N[C@@H](Cc1cc(F)cc(F)c1)[C@H](O)CNC1(c2cccc(C(C)(C)C)c2)CCc2nc(C)ncc2C1 (mixture of isomers)	15	93	910		
CC(=O)N[C@@H](Cc1cc(F)cc(F)c1)[C@H](O)CNC1(c2cccc(C(C)(C)C)c2)CCCNC1 (mixture of isomers)	> 1000	> 10000	2330		
CC(=O)N[C@@H](Cc1cc(F)cc(F)c1)[C@H](O)CNC1(c2cccc(C(C)(C)C)c2)CCC(=O)NC1 (mixture of isomers)	76	47	180		
CC(=O)N[C@@H](Cc1cc(F)cc(F)c1)[C@H](O)CNC1(c2cccc(C(C)(C)C)c2)CCCN(C(=O)OCc2ccccc2)C1 (mixture of isomers)	780	860	3.3		
CC(=O)N[C@@H](Cc1cc(F)cc(F)c1)[C@H](O)CNC1(c2cccc(C(C)(C)C)c2)CCCN(C(N)=O)C1 (mixture of isomers)	210	330	90		
CC(=O)N[C@@H](Cc1cc(F)cc(F)c1)[C@H](O)CNC1(c2cccc(C(C)(C)C)c2)CCOCC1 (mixture of isomers)		61	230	8.1	
CC(=O)N[C@@H](Cc1cc(F)cc(F)c1)[C@H](O)CNC1(c2cccc(C(C)(C)C)c2)CCCC1 (mixture of isomers)	> 100	220	130		
CC(=O)N[C@@H](Cc1cc(F)cc(F)c1)[C@H](O)CNC1(c2cccc(-n3cccn3)c2)CCOC1 (mixture of isomers)	> 1000	2400	4900		
CC(=O)N[C@@H](Cc1cc(F)cc(F)c1)[C@H](O)CNC1(c2cccc(C(C)(C)C)c2)CCCN(O)C1 (mixture of isomers)	45	400	670		
CC(=O)N[C@@H](Cc1cc(F)cc(F)c1)[C@H](O)CNC1(c2cccc(-n3cccn3)c2)CCCOC1 (mixture of isomers)	91	270	170		
CC(=O)N[C@@H](Cc1cc(F)cc(F)c1)[C@H](O)CNC1(c2cccc(C(C)(C)C)c2)CCCN(C(C)=O)C1 (mixture of isomers)	560	1300	410		
CC(=O)N[C@@H](Cc1cc(F)cc(F)c1)[C@H](O)CNC1(c2cccc(C(C)(C)C)c2)CCc2n[nH]cc2C1 (mixture of isomers)	2.1		300	1.6	
CC(=O)N[C@@H](Cc1cc(F)cc(F)c1)[C@H](O)CNC1(c2cccc(C(C)(C)C)c2)CCc2nc(N)ncc2C1 (mixture of isomers)	1.8	14	210		
CC(=O)N[C@@H](Cc1cc(F)cc(F)c1)[C@H](O)CNC1(c2cccc(C(C)(C)C)c2)CCNC(=O)C1 (single isomer, unassigned)	21	18	330		
CC(=O)N[C@@H](Cc1cc(F)cc(F)c1)[C@H](O)CNC1(c2cccc(C(C)(C)C)c2)CCNC(=O)C1 (stereo in doubt; 16)		19	1100		23
